# Tested on: SW 1271 complex spheroids, viability
# Experiment: Anticancer human tumor SW 1271 cell line growth inhibition [LSD1];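 also: spheroids exposed to agents for 7 days before luminescence read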;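 as to viability, T/C: 100% = DMSO vehicle control viability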
# Conditions: for IC50: curve of first compound; for viability, T/C: stronger effect = lower value
# Source text: Multicellular complex tumor spheroid response to LSD1 Inhibitor Iadademstat in combination with a variety of drugs and investigational agents in selected tumor cell lines
# The current study was undertaken to assess response to LSD1 inhibitors in combination with standard-of-care drugs and investigational agents in solid tumor complex spheroid models as well as in the K-562 leukemia. Complex spheroids include a stromal component modeled by human endothelial cells (HUVEC) and fibroblasts modeled by human mesenchymal stem cells (MSCs). The concentration ranges selected for each drug and investigational agent were based upon clinically achievable concentrations if the clinical Cmax of the agent was known.
# Compounds. The drugs and investigational agents used in this study are listed on Table 1. All of the agents used, including staurosporine (NSC755774) and gemcitabine (NSC613327), were obtained from the Developmental Therapeutics Program, NCI. FDA-approved anticancer drugs are available from the NCI at http://dtp.nci.nih.gov/branches/dscb/oncology_drugset_explanation.html. Drugs and investigational agents were >95% pure by proton nuclear magnetic resonance (NMR) and liquid chromatography/mass spectrometry (LC/MS). Stock solutions were prepared at 400x in DMSO, stored at -70 degrees C, and diluted in fresh medium prior to their use. The final concentration of DMSO in cell culture wells never exceeded 0.25% (v/v). The FDA-approved anticancer drug set is available from the Developmental Therapeutics Program at https://dtp.cancer.gov/organization/dscb/obtaining/available_plates.htm. All drugs and investigational agents were tested over a range starting from a high concentration at or near the clinical Cmax and decreasing in half-log increments. If the clinical Cmax for an agent had not been determined, the highest concentration tested was 10 microM.
# Cell Lines. The patient-derived cancer cell (PDC) lines: 292921-168-R-J2-PDC, K24384-001-R-PDC, and 521955-158-R2-J5-PDC pancreatic carcinomas, 556581-035-R-J1 ovarian carcinoma, 324938-238-R-J1-PDC, 855422-203-R-J1-PDC and 883617-216-R-J1-PDC urothelial bladder carcinomas, 743489-274-T-PDC renal cell carcinoma, 138582-R-J1 Merkel cell tumor, K60290-347-R-J1 and K57222-313-R-J1-PDC glioblastomas, 653999-131-R-J2-PDC, LG0703-F948-PDC, and 349418-098-R-PDC non-small cell lung carcinomas, 885512-296-R-J2-PDC, 171881-019-R-J1-PDC breast carcinomas and 186277-243-T-J2-PDC and 233499-124-R-J2-PDC colon carcinomas were obtained from the NCI Patient-Derived Models Repository (PDMR, https://pdmr.cancer.gov). The established cell lines NCI/ADR-RES (RRID:CVCL_14520 and OVCAR-5 (RRID:CVCL_1628) ovarian carcinomas, 786-O (RRID:CVCL_1051) and A498 (RRID:CVCL_A498) renal cell carcinoma, NCI-H211 (ATCC, cat. CRL-5824; RRID:CVCL_1529), NCI-H196 (ATCC, cat. CRL-5823, RRID:CVCL_1509), SW 1271 (ATCC, cat. CRL-2177, RRID:CVCL_1716) and NCI-H1876 (ATCC, cat. CRL-5902, RRID:CVCL_1503) small cell lung carcinomas, MDA-MB-231 (RRID:CVCL_0062) and MDA-MB-468 (RRID:CVCL_0419)breast carcinomas (10-12). Pooled donor human umbilical vein endothelial cells (HUVEC, Lonza, cat. CC-2519) and human mesenchymal stem cells (hMSC, Lonza, cat. PT-2501) were purchased from Lonza (Walkersville, MD).
# Cell Culture. All cells were maintained in an incubator at 37 degrees C and 5% CO2 with 95% humidity. The PDC lines were cultured according to standard operating procedures established by the NCI PDMR (https://pdmr.cancer.gov). Briefly all PDCs were thawed and cultured in Matrigel-coated flasks prepared with a working solution of 1X Ham's F-12 nutrient mix, without supplementation (Invitrogen, Waltham, MA, cat. 11765054), 100 U/mL penicillin-streptomycin (Invitrogen, cat. 15140122), and 2.5% Matrigel (Corning Inc., Corning, NY, cat. 354248) for the first three passages. […]
# [1] = second compound 0.1 µM, first compound 0.00949 µM
# [2] = second compound 0.1 µM, first compound 0.03 µM
# [3] = second compound 0.1 µM, first compound 0.0949 µM
# [4] = second compound 0.1 µM, first compound 0.3 µM
# [5] = second compound 0.1 µM, first compound 0.949 µM
# [6] = second compound 0.1 µM, first compound 3 µM
# [7] = second compound 0.316 µM, first compound 0.00949 µM
# [8] = second compound 0.316 µM, first compound 0.03 µM
# [9] = second compound 0.316 µM, first compound 0.0949 µM
# [10] = second compound 0.316 µM, first compound 0.3 µM
# [11] = second compound 0.316 µM, first compound 0.949 µM
# [12] = second compound 0.316 µM, first compound 3 µM
# [13] = second compound 1 µM, first compound 0.00949 µM
# [14] = second compound 1 µM, first compound 0.03 µM
# [15] = second compound 1 µM, first compound 0.0949 µM
# [16] = second compound 1 µM, first compound 0.3 µM
# [17] = second compound 1 µM, first compound 0.949 µM
# [18] = second compound 1 µM, first compound 3 µM
# [19] = second compound 3.16 µM, first compound 0.00949 µM
# [20] = second compound 3.16 µM, first compound 0.03 µM
# [21] = second compound 3.16 µM, first compound 0.0949 µM
# [22] = second compound 3.16 µM, first compound 0.3 µM
# [23] = second compound 3.16 µM, first compound 0.949 µM
# [24] = second compound 3.16 µM, first compound 3 µM
# [25] = second compound 10 µM, first compound 0.00949 µM
# [26] = second compound 10 µM, first compound 0.03 µM
# [27] = second compound 10 µM, first compound 0.0949 µM
# [28] = second compound 10 µM, first compound 0.3 µM
# [29] = second compound 10 µM, first compound 0.949 µM
# [30] = second compound 10 µM, first compound 3 µM
compound,measurement,setting,value
Nc1ccccc1NC(=O)c1ccc(CNC(=O)OCc2cccnc2)cc1 + NC1CC1c1ccc(-c2cccc(O)c2)cc1,IC50,second compound 0.1 µM,106 nM
same,IC50,second compound 0.316 µM,120 nM
same,IC50,second compound 1 µM,62.6 nM
same,IC50,second compound 3.16 µM,76.2 nM
same,IC50,second compound 10 µM,38.1 nM
same,"viability, T/C",[1],85.6%
same,"viability, T/C",[2],65.7%
same,"viability, T/C",[3],56.7%
same,"viability, T/C",[4],29.6%
same,"viability, T/C",[5],8.17%
same,"viability, T/C",[6],3.78%
same,"viability, T/C",[7],89.2%
same,"viability, T/C",[8],75.3%
same,"viability, T/C",[9],57.3%
same,"viability, T/C",[10],27.7%
same,"viability, T/C",[11],6.71%
same,"viability, T/C",[12],4.39%
same,"viability, T/C",[13],94.3%
same,"viability, T/C",[14],59.9%
same,"viability, T/C",[15],46.6%
same,"viability, T/C",[16],26.6%
same,"viability, T/C",[17],7.28%
same,"viability, T/C",[18],5.61%
same,"viability, T/C",[19],81.3%
same,"viability, T/C",[20],69.7%
same,"viability, T/C",[21],40.5%
same,"viability, T/C",[22],32.4%
same,"viability, T/C",[23],10%
same,"viability, T/C",[24],4.69%
same,"viability, T/C",[25],66.7%
same,"viability, T/C",[26],51.9%
same,"viability, T/C",[27],38.6%
same,"viability, T/C",[28],29.4%
same,"viability, T/C",[29],11.7%
same,"viability, T/C",[30],6.45%
O=C(C=Cc1cccc(S(=O)(=O)Nc2ccccc2)c1)NO + NC1CC1c1ccc(-c2cccc(O)c2)cc1,IC50,second compound 0.1 µM,98.2 nM
same,IC50,second compound 0.316 µM,62.9 nM
same,IC50,second compound 1 µM,55.3 nM
same,IC50,second compound 3.16 µM,60 nM
same,IC50,second compound 10 µM,68.1 nM
same,"viability, T/C",[1],74.5%
same,"viability, T/C",[2],69%
same,"viability, T/C",[3],51.8%
same,"viability, T/C",[4],17.9%
same,"viability, T/C",[5],7.5%
same,"viability, T/C",[6],0.27%
same,"viability, T/C",[7],70.3%
same,"viability, T/C",[8],61.8%
same,"viability, T/C",[9],44%
same,"viability, T/C",[10],17.4%
same,"viability, T/C",[11],6.95%
same,"viability, T/C",[12],0.16%
same,"viability, T/C",[13],75.7%
same,"viability, T/C",[14],60.1%
same,"viability, T/C",[15],41.8%
same,"viability, T/C",[16],14.3%
same,"viability, T/C",[17],6.33%
same,"viability, T/C",[18],0.7%
same,"viability, T/C",[19],72.7%
same,"viability, T/C",[20],58.4%
same,"viability, T/C",[21],45.6%
same,"viability, T/C",[22],14.1%
same,"viability, T/C",[23],6.89%
same,"viability, T/C",[24],0.2%
same,"viability, T/C",[25],67.1%
same,"viability, T/C",[26],59.9%
same,"viability, T/C",[27],46.5%
same,"viability, T/C",[28],17.6%
same,"viability, T/C",[29],5.74%
same,"viability, T/C",[30],0.36%
